How the values were obtained:
Format in all cases: cell-based
[1] = biological target: T1, human somatostatin receptor subtype 2 (Homo sapiens, UniProt P30874); experiment: Functional assay for SSTR2 agonists (HTRF cAMP); settings: CHO-K1 cells stably expressing human SST2; NKH477-stimulated cAMP; 20 min at 37 C; read-out: hSST2 cAMP Avg EC50
T1 construct: expressed in transfected cells
In short: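 CHO-K1 cells stably expressing human SSTR2 treated with compound (typically 0-10,000 nM final) for 20 min at 37 °C. Lysate cAMP measured by HTRF (665/620 nm ratio), converted via standard curve; EC50 from cAMP vs concentration.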

SST2 = biological target: T2, SST2 (Homo sapiens, UniProt P30874); experiment: PathHunter CHO-K1 SST2 Internalization Assay; settings: PathHunter CHO-K1 SST2 cells; 90 min at 37 C; luminescence; read-out: Internalization EC50
T2 construct: host or cells: PathHunter CHO-K1 SST2 cells
In short: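 CHO-K1 cells expressing human SST2, 2500 cells/well, grown 48 h, then exposed 90 min at 37 C to 11-point 1:3 NDC dilutions (final top 10 uM). Beta-Glo luminescence after 60 min at room temperature; four-parameter IC50, duplicate mean, background-corrected.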

[2] = system: NCI-H524 human small cell lung cancer cells; experiment: H524 assay: inhibition of cell proliferation (CellTiter Glo); settings: 2 h treatment, washout, additional 70 h incubation
In short: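 NCI-H524 cells were exposed for 2 h to NDC in an 11-point two-fold series starting at 1 uM. The drug was then washed out and cells grew a further 70 h. CellTiter Glo luminescence gave % inhibition versus untreated control, and IC50 came from a four-parameter nonlinear regression.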

T2 sequence (P30874 whole entry): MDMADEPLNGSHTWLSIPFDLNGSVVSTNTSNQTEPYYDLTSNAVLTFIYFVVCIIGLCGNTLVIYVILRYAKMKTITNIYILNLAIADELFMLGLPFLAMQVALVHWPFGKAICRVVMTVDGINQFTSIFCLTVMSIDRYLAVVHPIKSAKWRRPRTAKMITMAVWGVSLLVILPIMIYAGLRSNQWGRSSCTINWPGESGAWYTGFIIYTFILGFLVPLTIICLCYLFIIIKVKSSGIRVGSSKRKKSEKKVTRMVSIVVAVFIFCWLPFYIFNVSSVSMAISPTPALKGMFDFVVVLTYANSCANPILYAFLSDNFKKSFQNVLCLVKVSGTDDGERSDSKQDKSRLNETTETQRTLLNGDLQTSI
T1 sequence (P30874 whole entry): as above

SMILES | EC50 [1] [nM] | EC50 (SST2) [nM] | EC50 [2] [nM]
CC[C@H](C)[C@@H]([C@@H](CC(=O)N1CCC[C@H]1[C@H](OC)[C@@H](C)C(=O)N[C@H](C)[C@@H](O)c1ccccc1)OC)N(C)C(=O)[C@@H](NC(=O)[C@H](C(C)C)N(C)C(=O)OCc1ccc(NC(=O)[C@H](C)NC(=O)[C@@H](NC(=O)C[C@@H](N)C(=O)NCCOCCC(=O)NCCNc2ncc(-c3cc(C)cc(F)c3)c(N3CCC(NC)CC3)c2-c2nc3ccc(Cl)cc3[nH]2)C(C)C)c(O[C@@H]2O[C@H](C(=O)O)[C@@H](O)[C@H](O)[C@H]2O)c1)C(C)C [Compound 120] | 0.088 | 5.2 | 20
CC[C@H](C)[C@@H]([C@@H](CC(=O)N1CCC[C@H]1[C@H](OC)[C@@H](C)C(=O)N[C@H](C)[C@@H](O)c1ccccc1)OC)N(C)C(=O)[C@@H](NC(=O)[C@H](C(C)C)N(C)C(=O)OCc1ccc(NC(=O)[C@H](CCCNC(N)=O)NC(=O)[C@@H](NC(=O)C[C@@H](N)C(=O)NCCOCCC(=O)NCCNc2ncc(-c3cc(C)cc(F)c3)c(N3CCC(NC)CC3)c2-c2nc3ccc(Cl)cc3[nH]2)C(C)C)c(O[C@@H]2O[C@H](C(=O)O)[C@@H](O)[C@H](O)[C@H]2O)c1)C(C)C [Compound 121] | 0.14 | 5.3 | 19
CC[C@H](C)[C@@H]([C@@H](CC(=O)N1CCC[C@H]1[C@H](OC)[C@@H](C)C(=O)N[C@H](C)[C@@H](O)c1ccccc1)OC)N(C)C(=O)[C@@H](NC(=O)[C@H](C(C)C)N(C)C(=O)OCc1ccc(NC(=O)[C@H](CCCNC(N)=O)NC(=O)[C@@H](NC(=O)C[C@@H](N)C(=O)NCCOCCOCCOCCOCCC(=O)NCCNc2ncc(-c3cc(C)cc(F)c3)c(N3CCC(NC)CC3)c2-c2nc3ccc(Cl)cc3[nH]2)C(C)C)c(O[C@@H]2O[C@H](C(=O)O)[C@@H](O)[C@H](O)[C@H]2O)c1)C(C)C [Compound 122] | 0.19 | 8.8 | 27
CC[C@H](C)[C@@H]([C@@H](CC(=O)N1CCC[C@H]1[C@H](OC)[C@@H](C)C(=O)N[C@H](C)[C@@H](O)c1ccccc1)OC)N(C)C(=O)[C@@H](NC(=O)[C@H](C(C)C)N(C)C(=O)OCc1ccc(NC(=O)[C@H](CCCNC(N)=O)NC(=O)[C@@H](NC(=O)C[C@@H](N)C(=O)NCCOCCC(=O)NCCNc2ncc(-c3cc(C)cc(F)c3)c(N3CCC(NC)CC3)c2-c2nc3cc(F)cc(OC)c3[nH]2)C(C)C)c(O[C@@H]2O[C@H](C(=O)O)[C@@H](O)[C@H](O)[C@H]2O)c1)C(C)C [Compound 123] | 0.2 | 2.3 | 8.4
CC[C@H](C)[C@@H]([C@@H](CC(=O)N1CCC[C@H]1[C@H](OC)[C@@H](C)C(=O)N[C@H](C)[C@@H](O)c1ccccc1)OC)N(C)C(=O)[C@@H](NC(=O)[C@H](C(C)C)N(C)C(=O)OCc1ccc(NC(=O)[C@H](C)NC(=O)[C@@H](NC(=O)CCOCCC(=O)NCCN(C)c2ncc(-c3cc(C)cc(F)c3)c(N3CCC(N)CC3)c2-c2nc3ccc(Cl)cc3[nH]2)C(C)C)c(O[C@@H]2O[C@H](C(=O)O)[C@@H](O)[C@H](O)[C@H]2O)c1)C(C)C [Compound 125] | 0.59 | 48 | 580
CC[C@H](C)[C@@H]([C@@H](CC(=O)N1CCC[C@H]1[C@H](OC)[C@@H](C)C(=O)N[C@H](C)[C@@H](O)c1ccccc1)OC)N(C)C(=O)[C@@H](NC(=O)[C@H](C(C)C)N(C)C(=O)OCc1ccc(NC(=O)[C@H](C)NC(=O)[C@@H](NC(=O)CCOCCC(=O)NCCNc2ncc(-c3cc(C)cc(F)c3)c(N3CCC(N)CC3)c2-c2nc3cnccc3[nH]2)C(C)C)c(O[C@@H]2O[C@H](C(=O)O)[C@@H](O)[C@H](O)[C@H]2O)c1)C(C)C [Compound 127] | 1.6 | 290 | 170
CC[C@H](C)[C@@H]([C@@H](CC(=O)N1CCC[C@H]1[C@H](OC)[C@@H](C)C(=O)N[C@H](C)[C@@H](O)c1ccccc1)OC)N(C)C(=O)[C@@H](NC(=O)[C@H](C(C)C)N(C)C(=O)OCc1ccc(NC(=O)[C@H](C)NC(=O)[C@@H](NC(=O)CCOCCC(=O)NCCNc2ncc(-c3cncc(C)c3)c(N3CCC(N)CC3)c2-c2nc3ccc(Cl)cc3[nH]2)C(C)C)c(O[C@@H]2O[C@H](C(=O)O)[C@@H](O)[C@H](O)[C@H]2O)c1)C(C)C [Compound 129] | 190 | 960 | 3000
CC[C@H](C)[C@@H]([C@@H](CC(=O)N1CCC[C@H]1[C@H](OC)[C@@H](C)C(=O)N[C@H](C)[C@@H](O)c1ccccc1)OC)N(C)C(=O)[C@@H](NC(=O)[C@H](C(C)C)N(C)C(=O)OCc1ccc(NC(=O)[C@H](CCCNC(N)=O)NC(=O)[C@@H](NC(=O)c2cn(CCOCCC(=O)NCCNc3ncc(-c4cc(C)cc(F)c4)c(N4CCC(N)CC4)c3-c3nc4ccc(Cl)cc4[nH]3)nn2)C(C)C)c(O[C@@H]2C[C@H](C(=O)O)[C@@H](O)[C@H](O)[C@H]2O)c1)C(C)C [Compound 131] | 0.34 | 4.5 | 1600
CC[C@H](C)[C@@H]([C@@H](CC(=O)N1CCC[C@H]1[C@H](OC)[C@@H](C)C(=O)N[C@H](C)[C@@H](O)c1ccccc1)OC)N(C)C(=O)[C@@H](NC(=O)[C@H](C(C)C)N(C)C(=O)OCc1ccc(NC(=O)[C@H](CCCNC(N)=O)NC(=O)[C@@H](NS(=O)(=O)C[C@H](C)CC(=O)CCOCCC(=O)NCCNc2ncc(-c3cc(C)cc(F)c3)c(N3CCC(N)CC3)c2-c2nc3ccc(Cl)cc3[nH]2)C(C)C)c(O[C@@H]2C[C@H](C(=O)O)[C@@H](O)[C@H](O)[C@H]2O)c1)C(C)C [Compound 132] | 0.26 | 3.2 | 410
CC[C@H](C)[C@@H]([C@@H](CC(=O)N1CCC[C@H]1[C@H](OC)[C@@H](C)C(=O)N[C@H](C)[C@@H](O)c1ccccc1)OC)N(C)C(=O)[C@@H](NC(=O)[C@H](C(C)C)N(C)C(=O)OCc1ccc(NC(=O)[C@H](CCCNC(N)=O)NC(=O)[C@@H](NC(=O)CCOCCC(=O)N(C)CC(=O)NCCNc2ncc(-c3cc(C)cc(F)c3)c(N3CCC(N)CC3)c2-c2nc3ccc(Cl)cc3[nH]2)C(C)C)c(O[C@@H]2O[C@H](C(=O)O)[C@@H](O)[C@H](O)[C@H]2O)c1)C(C)C [Compound 133] | 0.097 | 5.3 | 1900
CC[C@H](C)[C@@H]([C@@H](CC(=O)N1CCC[C@H]1[C@H](OC)[C@@H](C)C(=O)N[C@H](C)[C@@H](O)c1ccccc1)OC)N(C)C(=O)[C@@H](NC(=O)[C@H](C(C)C)N(C)C(=O)OCc1ccc(NC(=O)[C@H](C)NC(=O)[C@@H](NC(=O)CCOCCC(=O)N(C)CC(=O)NCCNc2ncc(-c3cc(C)cc(F)c3)c(N3CCC(N)CC3)c2-c2nc3ccc(Cl)cc3[nH]2)C(C)C)c(O[C@@H]2O[C@H](C(=O)O)[C@@H](O)[C@H](O)[C@H]2O)c1)C(C)C [Compound 134] | 0.11 | 2.1 | 1200
CC[C@H](C)[C@@H]([C@@H](CC(=O)N1CCC[C@H]1[C@H](OC)[C@@H](C)C(=O)N[C@H](C)[C@@H](O)c1ccccc1)OC)N(C)C(=O)[C@@H](NC(=O)[C@H](C(C)C)N(C)C(=O)OCc1ccc(NC(=O)[C@H](C)NC(=O)[C@@H](NC(=O)C[C@@H](N)C(=O)NCCOCCOCCC(=O)NCCNc2ncc(-c3cc(C)cc(F)c3)c(N3CCC(N)CC3)c2-c2nc3ccc(Cl)cc3[nH]2)C(C)C)c(O[C@@H]2O[C@H](C(=O)O)[C@@H](O)[C@H](O)[C@H]2O)c1)C(C)C [Compound 136] | 0.29 | 3.5 | 540
CC[C@H](C)[C@@H]([C@@H](CC(=O)N1CCC[C@H]1[C@H](OC)[C@@H](C)C(=O)N[C@H](C)[C@@H](O)c1ccccc1)OC)N(C)C(=O)[C@@H](NC(=O)[C@H](C(C)C)N(C)C(=O)OCc1ccc(NC(=O)[C@H](CCCNC(N)=O)NC(=O)[C@@H](NC(=O)C[C@@H](N)C(=O)NCCOCCOCCC(=O)NCCNc2ncc(-c3cc(C)cc(F)c3)c(N3CCC(N)CC3)c2-c2nc3ccc(Cl)cc3[nH]2)C(C)C)c(O[C@@H]2O[C@H](C(=O)O)[C@@H](O)[C@H](O)[C@H]2O)c1)C(C)C [Compound 137] | 0.27 | 2.8 | 850
CC[C@H](C)[C@@H]([C@@H](CC(=O)N1CCC[C@H]1[C@H](OC)[C@@H](C)C(=O)N[C@H](C)[C@@H](O)c1ccccc1)OC)N(C)C(=O)[C@@H](NC(=O)[C@H](C(C)C)N(C)C(=O)OCc1ccc(NC(=O)[C@H](C)NC(=O)[C@@H](NC(=O)CCOCCC(=O)NCCNc2ncc(-c3cc(C)cc(F)c3)c(N3CCC(N)CC3)c2-c2nc3ccc(F)cc3[nH]2)C(C)C)c(O[C@@H]2O[C@H](C(=O)O)[C@@H](O)[C@H](O)[C@H]2O)c1)C(C)C [Compound 138] | 0.072 | 4.4 | 20
CC[C@H](C)[C@@H]([C@@H](CC(=O)N1CCC[C@H]1[C@H](OC)[C@@H](C)C(=O)N[C@H](C)[C@@H](O)c1ccccc1)OC)N(C)C(=O)[C@@H](NC(=O)[C@H](C(C)C)N(C)C(=O)OCc1ccc(NC(=O)[C@H](C)NC(=O)[C@@H](NC(=O)CCOCCC(=O)NCCNc2ncc(-c3cc(F)cc(OC)c3)c(N3CCC(N)CC3)c2-c2nc3ccc(Cl)cc3[nH]2)C(C)C)c(O[C@@H]2O[C@H](C(=O)O)[C@@H](O)[C@H](O)[C@H]2O)c1)C(C)C [Compound 139] | 0.1 | 4.9 | 30

Source: patent publication US20260007758A1, “SO[…]-2 RECEPTOR (SST2R) NON-PEPTIDE DRUG CONJUGATES AND USES THEREOF” (Crinetics Pharmaceuticals, Inc., priority 2024, published 2026)
